Experimental data reported in patent publication US6653319B1, “Pharmaceutical formulation for poorly water soluble camptothecin analogues” (University of Kentucky Research Foundation, priority 2001, dated 2003).
In brackets after ≈: the same amount, converted by molar mass. Entries after “also recorded” stand apart in the source; their conditions may differ.

Key:
[1] = Solubilities of DB-67 in various solvent systems at 25° C. (excess drug, filtration, HPLC); type: physicochemical
Description: Solubilities of DB-67 or camptothecin in a given solvent system were determined by adding an amount of the drugs well in excess of its estimated solubility to 1-2 mL of the desired solvent in a 4-mL glass vial. The capped vial was rotated in a VWR2010 incubator set at 25° C. for a period of 3-15 days. The sample was then passed through a 0.45 μm filter, except for liposome or emulsion samples, which were passed through a 1.2 μm filter. The collected sample was weighed, diluted with methanol, and analyzed by HPLC. The HPLC system consisted of a Discovery C18 15 cm×4.6 mm column and a Discovery C18 2 cm×4.6 mm 5 μm guard column (Supelco), a Beckman 110B solvent delivery module, a Rheodyne M7125 injector with a […] (Rainin), a Waters M2487 Dual λ Absorbance detector set at 254 nm, an HP 3392A integrator, and a mobile phase of 25% and 41% (v/v) acetonitrile in 2% (w/v) triethylamine acetate for camptothecin and DB-67, respectively.
The solubility-pH profile for DB-67 in aqueous solution is presented in FIG. 2, where the curve is a […] using an equilibrium model for the base-catalyzed lactone-ring opening and ionization of substituents in DB-67 (10-OH and the —COOH when the lactone-ring is opened at a basic pH).

[2] = Reaction kinetics of lactone-ring opening and closing (hydrolysis) in aqueous solution by HPLC; type: physicochemical
Description: The reaction kinetics for the E-ring opened and closed DB-67 were investigated in aqueous solutions at pH 7.4 and 4.0, respectively. The reactions were thermostated at 25±0.1° C. by a circulation water bath and initiated by adding 0.1 mL of reactants (Species I DB-67 in DMSO or Species II DB-67 in 2 mM NaOH; see FIG. 1) to a 30 mM phosphate or acetate buffer solution with an initial reactant concentration of 2-4×10^−6 M. After the addition and at different time intervals, aliquots of the reaction solutions were withdrawn and immediately assayed by HPLC. The concentrations of both species I and II were monitored in order to evaluate the mass balance and other possible degradation products. Simultaneous non-linear least-squares fits of the kinetic profiles yield the first-order rate constants for the lactone-ring opening and closing processes of kopen=1.1±0.1×10^−4 s^−1 and kclose=3.3±0.3×10^−4 s^−1.
We have also investigated the hydrolysis processes for the lactone-ring intact DB-67 (Species I) at pH 7.4 in the presence of 20% (w/v) SBE-CD and HP-CD, respectively. […] The fitted rate constants are kopen=(7.1±0.1)×10^−5s^−1 and kopen=(6.2±0.1)×10^−5s^−1 for 20% (w/v) SBE-CD and HP-CD, respectively. As noted above, the presence of 20% (w/v) SBE-CD or HP-CD reduces the rate for the lactone-ring opening process by 1.6- and 1.8-fold, respectively. The rate reduction is therefore more marked in the presence of HP-CD.

[3] = compared with FDA approved camptothecin analogs (Camptosar and Hycamtin); cited from earlier work
[4] = Solubility method to determine complex formation constant with SBE-CD; type: physicochemical
Description: (§1) To understand the complexation mechanisms behind this solubilization effect, a solubility method was employed to determine the formation constant between a camptothecin analogue and a cyclodextrin derivative. In the solubility experiment, the solution pH was controlled below 4.6 with a 30 mM citrate buffer.
(§2) In the limit of [CD]>>So, the relevant formation constants can be expressed as: […]
(§3) where So is the solubility in the absence of cyclodextrins, Kf^1:1 and Kf^1:2 are the 1:1 and 1:2 complex formation constants, and [CD] is concentration of cyclodextrin. A linear least-squares fit of the data for SBE-CD as shown in FIG. 3 yields the complex formation constant of Kf^1:1=8.5±0.2×10^3M^−1(r^2=0.999). […] The inability for SBE-CD to form 1:2 complexes with DB-67 apparently arises from the presence of an average of seven negatively charged sulfobutyl ether groups in a SBE-CD molecule preventing the approach of two SBE-CDs to each other to form 1:2 complexes. A least-squares fit of the data for HP-CD as shown in FIG. 3 according to Equation 1 yields the 1:1 and 1:2 complex formation constants of Kf^1:1=5.8±0.2×10^3M^−1 and […]±0.2 ×10^4M^−1(r^2=1.000).

[5] = type: physicochemical
Description: A successful pharmaceutical formulation with a supersaturated drug concentration requires a physical stability with respect to drug precipitation. In our first attempt, 20-25 mg/mL of DB-67 was loaded in DMSO because of the drug's high solubility in this solvent. The dissolved DB-67 was then added slowly to a 20% (w/v) SBE-CD aqueous solution by a volume ratio of 1:9 to achieve a final drug concentration of 2 mg/mL. The dilution rate was maintained at 0.10 mL/min. […] A proper control of the release pattern (local or uniform) and rate of DB-67 into the dilution medium is therefore critical to the success of this type of formulation approach.
As described above, a slow and uniform release of DB-67 into a dilution medium may be accomplished by employing a chemical approach, namely by converting the E-ring opened DB-67 (Species II, see FIG. 1), which is highly water-soluble, to the neutral E-ring closed DB-67 (Species I) in a controlled fashion. […] Accordingly, 20 mg/mL of DB-67 was loaded in a sodium hydroxide solution with NaOH concentration maintained at twice that of the drug concentration. The prepared DB-67 alkaline aqueous solution was passed through a 0.2 μm filter before it was added slowly (0.11 mL/min) into 20% (w/v) acidic SBE-CD solution by a volume ratio of 1:9. In order to completely neutralize DB-67, HCl was present in the dilution solution in an amount equal to the amount of NaOH in the DB-67 alkaline solution. A small amount of acetate buffer (5 mM) was also included in the dilution medium to control the solution pH to about 4 in order to facilitate a timely conversion from the E-ring opened DB-67 to its E-ring closed counterpart.
Shortly after the lyophilization, the lyophilized sample was reconstituted and the stability of the reconstituted solution was examined following the same procedure as described above.
The precipitation profiles of DB-67 solutions containing other solubilizing agents such as liposomes and an acidic aqueous cosolvent solution comprising an equal volume mixture of ethanol and cremophor, prepared as described in Examples 3 and 4, respectively, were evaluated.

[6] = Solubility method to determine complex formation constants with HP-CD; type: physicochemical
Description: as §1, §2, §3

[7] = HP-CD, E-ring closed DB-67, pH below 4.6, 30 mM citrate buffer, fit to Equation 1

CC[C@@]1(O)C(=O)OCc2c1cc1n(c2=O)Cc2c-1nc1ccc(O)cc1c2[Si](C)(C)C(C)(C)C [DB-67, 7-t-butyldimethylsilyl-10-hydroxycamptothecin]
S (solubility) ([1]; 5% Cremophor, 5% (v/v) in 5% (w/v) Dextrose/Water, 25° C., single sample): 200 µg/mL
S (solubility) ([1]; 10% (v/v) PEG-400/water, 25° C.): (3.3 ± 0.5) × 10^−2 mg/mL
S (solubility) ([1]; 40% (w/v) HPCD/water, 25° C.): (4.9 ± 0.2) × 10^−1 mg/mL
S (solubility) ([1]; 40% (w/v) SBE-CD/water/1 mM HCl, 25° C.): (2.09 ± 0.04) × 10^−1 mg/mL
S (solubility) ([1]; 40% PG, 10% (v/v) EtOH/water, 25° C.): (1.73 ± 0.04) × 10^−1 mg/mL
S (solubility) ([1]; 50% (v/v) PEG-400/water, 25° C.): (2.0 ± 0.3) × 10^−1 mg/mL
S (solubility) ([1]; 50% Cremophor, 50% (v/v) EtOH (Diluent-12), 25° C.): (7.5 ± 0.2) × 10^0 mg/mL
S (solubility) ([1]; Emulsion (20% soybean oil, 2% glycerin, 73% water, 4% Tween80, 1% eggPC), 25° C.): (2.06 ± 0.05) × 10^−1 mg/mL
S (solubility) ([1]; Liposome (70:25:5 (mole) DMPC:Chol:DMPG), 25° C.): (7.4 ± 0.3) × 10^−3 mg/mL
S (solubility) ([1]; Water/30 mM acetate buffer at pH 5.23, 25° C.): (1.11 ± 0.00) × 10^−5 mg/mL
S (solubility) ([1]; Water/0.5 M carbonate buffer at pH 10.20, 25° C., single sample): 178 µg/mL
solubility in an aqueous solution of acidic pH ([1]; pH 5.2, DB-67 mostly in E-ring intact form): 0.11 μg/mL
solubility in an aqueous solution ([1]; pH >10.2, mostly lactone-ring opened form): ~18000 µg/mL (≈ 37.6 mM)
reduction in the observed rate constant ([2]; 20% (w/v) HP-CD, pH 7.4): approximately 44%
reduction of the rate for the lactone-ring opening process ([2]; 20% (w/v) HP-CD, pH 7.4): 1.8 fold
reduction of the rate for the lactone-ring opening process ([2]; 20% (w/v) SBE-CD, pH 7.4): 1.6 fold
first-order rate constant for lactone-ring closing kclose ([2]; pH 4.0, 30 mM buffer, 25° C., no cyclodextrin): 3.3±0.3×10^−4 s^−1
first-order rate constant for lactone-ring opening kopen ([2]; pH 7.4, 30 mM buffer, 25° C., no cyclodextrin): 1.1±0.1×10^−4 s^−1
rate constant kopen ([2]; pH 7.4, in the presence of 20% (w/v) HP-CD): (6.2±0.1)×10^−5 s^−1
rate constant kopen ([2]; pH 7.4, in the presence of 20% (w/v) SBE-CD): (7.1±0.1)×10^−5 s^−1
potency in in vitro cytotoxicity assays [3]: comparable potency to other FDA approved camptothecin analogs
DB-67 bound to SBE-CD ([4]; 20% (w/v) SBE-CD, predominantly 1:1 complexes): more than 99.8%
1:1 complex formation constant Kf^1:1 ([4]; SBE-CD, neutral E-ring intact DB-67, pH below 4.6, 30 mM citrate buffer, linear fit r^2=0.999): 8.5±0.2×10^3 M^−1
overall DB-67 concentration in the solution over time ([5]; 2 mg/mL DB-67, 1:9 dilution of alkaline solution into 20% (w/v) acidic SBE-CD, pH 4.4): remained constant over an extended period of three days
time for conversion to E-ring closed DB-67 to be nearly complete ([5]; 20% (w/v) SBE-CD, measured solution pH 4.4): ≤ 100 min
precipitation on mechanical mixing of DB-67 in DMSO with 20% (w/v) SBE-CD ([5]; lactone-intact DB-67 in DMSO diluted into 20% (w/v) SBE-CD aqueous solution, final concentration >1 mg/mL (2 mg/mL, 1:9, 0.10 mL/min)): precipitation occurs immediately; also recorded: precipitation occurred even during the mixing process and continued after the finish of mixing
loss of DB-67 during the preparation process ([5]; stable solutions prepared by the present method): < 2%
DB-67 included in the CD hydrophobic cavity ([6]; 20% (w/v) HP-CD): more than 99.9%
complexes in the form of 1:2 complexes ([6]; 20% (w/v) HP-CD): roughly 46%
1:1 complex formation constant Kf^1:1 [6, 7]: 5.8±0.2×10^3 M^−1
1:2 complex formation constant (printed as Kf^1:1) [6, 7]: 3.8±0.2 ×10^4 M^−1
